Usually inhibition stands for the relative decrease from the control value, in per cent.

The values that follow come from patent publication US4233224A, “Coriolin derivatives” (priority 1978, dated 1980).

In brackets after ≈: the same amount, converted by molar mass. Read-outs that look alike come from different tables or passages of the source.

The conditions of series [1]: known coriolin type compounds; J. Antibiotics, Tetrahedron Letters; cited from earlier work.
Series [2] has as its system L-1210 (lymphatic leukemia strain). In words: Life-prolonging effect in cancer (L-1210) affected mice. The settings on record: once a day for 10 days, from 24 hours after intraperitoneal inoculation of 1×10^5 L-1210 cells, BDF1 mice, compared with control group. Format: in vivo, mouse (BDF1). On the procedure:
The L-1210 cells (1×10^5, 0.05 ml) were inoculated into the BDF1 mouse abdorminal cavities (BDF1 means a strain name of mouse), and after lapse of 24 hours, a measured amount of preparation (suspended in 0.5% CMC aqueous solution) was administered once a day for a period of 10 days.
The mice were observed till death, and by comparing the average number of surviving days of the tested mice with that of the control group (to which a 0.5% CMC aqueous solution alone was given), the life prolongation rate was calculated from the following formula: [drawing 17]

In series [3] the test system is HeLa S3 cells. As to the kind of experiment: cells. Format: cell-based. The settings on record: Homo sapiens, 72 h, 3 days, read-out: ID50 (the source's name).
Series [4] has as its system HeLa S3 cells. In words: cells. The class given is cell-based. The settings on record: for inhibition at 1 µg/mL: 1 μg/ml; for inhibition at 2 µg/mL: 2 μg/ml. Here is the method:
The HeLa S3 cells were scattered in a plastic laboratory dish, 6 cm in diameter, at the rate of 0.7×10^5 cells/plate by using as a medium an Eagle's MEM (Minimum Essential Medium) [Science, 30, 432-437 (1959)] containing 60 μg/ml of kanamycin and 10% calf serum. On the 2nd day, the medium was removed and a measured quantity of the compound of this invention was added together with a fresh serum-impregnated Eagle's MEM. The cell population at this time was 1.58×10^5 cells/plate. After adding the compound (I) of this invention thereto, cultures were grown for 3 days and then the medium was removed, followed by washing with physiological saline, treatment with 0.05% trypsin at room temperature for about 15 minutes and pipetting to disperse the cells. The cell number was counted by a counter and percent inhibition (%) was calculated from the number of the control cells (to which no compound was added) to determine […]. [formula]

Where [5] appears, read: Homo sapiens, 72 h, 0.5 μg/ml, HeLa S3 cells, 3 days, read-out: Percent inhibition.
Where [6] appears, read: Homo sapiens, 72 h, HeLa S3 cells, 3 days, read-out: Percent inhibition.
Setting [7] is: Homo sapiens, HeLa S3, 72 h, read-out: Percent inhibition.

Take `CCCCCCCC(=O)O[C@@H]1[C@@H]2[C@H](CC1(C)C)C(=O)[C@@]13O[C@@H]1C(=O)[C@@]1(CO1)[C@@]23C` [5,8-dehydrocoriolin B]: the “anti-tumor activity (in words)” value in series [1] was “having an anti-tumor activity”.
As for `CCCCCCCC(=O)O[C@@H]1[C@@H]2[C@H](CC1(C)C)[C@H](O)[C@@]13O[C@@H]1C(=O)[C@@]1(CO1)[C@@]23C` [5-dehydrocoriolin B VI, 5-dehydrocoriolin B, reference compound], the “anti-tumor activity (in words)” value in series [1] is listed as “having an anti-tumor activity”. Moreover, the Life-prolonging effect (life prolongation rate) worked out at 106% in series [2] (dose 6 μg/mouse × 10), 138% in series [2] (dose 12.5 μg/mouse × 10), 137% in series [2] (dose 25 μg/mouse × 10) and 144% in series [2] (dose 50 μg/mouse × 10). Also, the IC50 in the series with HeLa S3 cells [3] is 0.76 µg/mL (≈ 1.87 µM). Also, the inhibition at 0.5 µg/mL in the series on HeLa S3 cells [4] (setting [5]) is 20%. In addition, the inhibition at 1 µg/mL in the series with HeLa S3 cells [4] (setting [6]) came to 77.6%.
Consider `C=C1CC2(OC1=O)[C@H]1CC(C)(C)[C@H](OC(=O)CCCCCCC)[C@H]1[C@]1(C)[C@]3(CO3)[C@@H](O)[C@H]3O[C@@]321` (stereo partly drawn) [I, 1α-octanoyl-4β, 15:6β,7β-dioxide-5β-hydroxy-8(22-methylene-21-butanolide)hirsutane], for which the values for the Life-prolonging effect (life prolongation rate) in series [2] (dose 50 μg/mouse × 10), in series [2] (dose 100 μg/mouse × 10) and in series [2] (dose 200 μg/mouse × 10) were 96%, 111% and 130%, respectively. In the series on HeLa S3 cells [3], the IC50 amounted to 2.1 µg/mL (≈ 4.42 µM). The inhibition at 2 µg/mL with HeLa S3 cells [4] (setting [6]) stood at 48%. Moreover, the inhibition at 4 µg/mL in the series on HeLa S3 cells [4] (Homo sapiens, 72 h, 4 μg/ml, HeLa S3 cells, 3 days, read-out: Percent inhibition) is 76.2%.
As for `C=C1CC2(OC1=O)[C@H]1CC(C)(C)[C@H](OC(=O)CCCCCCC)[C@H]1[C@]1(C)[C@]3(CO3)C(=O)[C@H]3O[C@@]321` (stereo partly drawn) [II, 1α-octanoyl-4β,15:6β,7β-dioxide-5-oxo-8(22-methylene-21-butanolide)hirsutane], the IC50 in the series on HeLa S3 cells [3] amounted to 0.12 µg/mL (≈ 0.254 µM). In the series on HeLa S3 cells [4] (HeLa S3 cells), the “inhibiting growth of the HeLa S3 cells (in words)” value is “works marvelously in preventing growth of the cancerous cells”. Also, in the series with HeLa S3 cells [4] (Homo sapiens, 72 h, 0.1 μg/ml, HeLa S3 cells, 3 days, read-out: Percent inhibition), the inhibition at 0.1 µg/mL came out at 40.2%. Also, the inhibition at 0.2 µg/mL in the series with HeLa S3 cells [4] (Homo sapiens, 72 h, 0.2 μg/ml, HeLa S3 cells, 3 days, read-out: Percent inhibition) was found to be 83.2%. Besides, in the series on HeLa S3 cells [4] (stated with ID50, HeLa S3 cells), the “toxicity (in words)” value is “extremely low in toxicity”.
`C=C1CC2(OC1=O)[C@H]1O[C@]13[C@@H](O)[C@H]1CC(C)(C)[C@H](OC(=O)CCCCCCC)[C@H]1[C@]3(C)[C@]21CO1` (stereo partly drawn) [III, 1α-octanoyl-4β,15:6β,7β-dioxide-5(19-methylene-18-butanolide)-8β-hydroxy-hirsutane]: the Life-prolonging effect (life prolongation rate) worked out at 99% in series [2] (dose 6 μg/mouse × 10); 106% in series [2] (dose 12.5 μg/mouse × 10); 127% in series [2] (dose 25 μg/mouse × 10); 141% in series [2] (dose 50 μg/mouse × 10); 148% in series [2] (dose 100 μg/mouse × 10); 148% in series [2] (dose 200 μg/mouse × 10). Moreover, the IC50 in the series on HeLa S3 cells [3] stood at 1.1 µg/mL (≈ 2.32 µM). In addition, the inhibition at 1 µg/mL in the series with HeLa S3 cells [4] (setting [6]) was found to be 42.9%. In addition, the inhibition at 2 µg/mL in the series on HeLa S3 cells [4] (setting [6]) stood at 96.6%.
On to `C=C1CC2(OC1=O)[C@H]1O[C@]13C(=O)[C@H]1CC(C)(C)[C@H](OC(=O)CCCCCCC)[C@H]1[C@]3(C)[C@]21CO1` (stereo partly drawn) [IV, 1α-octanoyl-4β,15:6β,7β-dioxide-5(19-methylene-18-butanolide)-8-oxo-hirsutane], for which the Life-prolonging effect (life prolongation rate) came to 99% in series [2] (dose 12.5 μg/mouse × 10); 113% in series [2] (dose 25 μg/mouse × 10); 106% in series [2] (dose 50 μg/mouse × 10); 127% in series [2] (dose 100 μg/mouse × 10); 127% in series [2] (dose 200 μg/mouse × 10). In addition, in the series on HeLa S3 cells [3], the IC50 was determined as 0.6 µg/mL (≈ 1.27 µM). Further, the inhibition at 0.5 µg/mL in the series on HeLa S3 cells [4] (setting [5]) was determined as 43.3%. Besides, in the series with HeLa S3 cells [4] (setting [6]), the inhibition at 1 µg/mL was 71.6%.
Consider `C=C1CC2(OC1=O)[C@H]1O[C@]13C1(CC(=C)C(=O)O1)[C@H]1CC(C)(C)[C@H](OC(=O)CCCCCCC)[C@H]1[C@]3(C)[C@]21CO1` (stereo partly drawn) [V, 1α-octanoyl-4β,15:6β,7β-dioxide-5(19-methylene-18-butanolide)-8(22-methylene-21-butanolide)hirsutane], for which the Life-prolonging effect (life prolongation rate) in series [2] (dose 100 μg/mouse × 10) was found to be 99%. The Life-prolonging effect (life prolongation rate) in series [2] (dose 200 μg/mouse × 10) stood at 120%. For the same compound, the IC50 in the series on HeLa S3 cells [4] (Homo sapiens, HeLa S3, 72 h, read-out: ID50) is 0.47 µg/mL (≈ 0.869 µM). Moreover, in the series with HeLa S3 cells [4] (setting [7]), the inhibition at 0.25 µg/mL is 22.4% and the inhibition at 0.5 µg/mL was determined as 56.9%.
With coriolin, the “anti-tumor activity (in words)” value in series [1] is “having an anti-tumor activity”.
Consider coriolin C, for which, in series [1], the “anti-tumor activity (in words)” value is “having an anti-tumor activity”.
